Values of other authors, collected in patent publication US11285107B2, “Process for manufacturing porous silica particles loaded with at least one bioactive compound adapted for lung, nasal, sublingual, and/or pharyngeal delivery” (Nanologica AB, priority 2017, dated 2022).

solubility in water | Compound
insoluble in water | NCC(=O)Nc1ccc(-n2nc(C(F)(F)F)cc2-c2ccc3c(ccc4ccccc43)c2)cc1 [OSU-03012, 2-amino-N-(4-(5-(phenanthren-2-yl)-3-(trifluoromethyl)-1H-pyrazol-1-yl)phenyl)acetamide]
> 6000 µg/mL | CCN(CC)CCNC(=O)c1cc(Cl)c(N)cc1OC [metoclopramide]
